Results reported in patent publication US10722483B2, “Treatment of NAFLD and NASH” (CymaBay Therapeutics, Inc., priority 2014, dated 2020).
Read-outs that look alike come from different tables or passages of the source.

Columns and labels:
[1] = cited from earlier work
[2] = 80 mg/day or placebo, NASH patients; cited from earlier work
[3] = rodent models of NAFLD/NASH; cited from earlier work
[4] = dyslipidemic subjects with abdominal obesity; cited from earlier work
[5] = genetically obese ob/ob mice; cited from earlier work
[6] = normal mice; cited from earlier work
[7] = healthy subjects, cited from earlier work
[8] = development discontinued; cited from earlier work
[9] = Example: subjects with NAFLD or NASH treated with MBX-8025 for 6 months; format: in vivo, human; settings: 50 or 100 mg/day for 6 months
Description: Subjects are permitted their usual other medications (e.g. antidiabetic medications such as metformin or […]) but not glitazones, PPAR agonists, OCA, or similar medications. […] At each visit, after a 12-hour fast, blood is drawn and urine collected; and a standard metabolic panel, complete blood count, and standard urinalysis are performed. Blood is analyzed for total cholesterol, HDL-C, LDL-C, VLDL-C, TGs, apoB, and liver transaminases. The subjects also maintain health diaries, which are reviewed at each visit.

[10] = cited from earlier work; remark: listed apart in the source
[11] = molecular target: T1, PPARα (Homo sapiens, UniProt Q07869); assay: Specificity of MBX-8025 compared with PPARα; format: biochemical
T1 sequence (Q07869 1-468): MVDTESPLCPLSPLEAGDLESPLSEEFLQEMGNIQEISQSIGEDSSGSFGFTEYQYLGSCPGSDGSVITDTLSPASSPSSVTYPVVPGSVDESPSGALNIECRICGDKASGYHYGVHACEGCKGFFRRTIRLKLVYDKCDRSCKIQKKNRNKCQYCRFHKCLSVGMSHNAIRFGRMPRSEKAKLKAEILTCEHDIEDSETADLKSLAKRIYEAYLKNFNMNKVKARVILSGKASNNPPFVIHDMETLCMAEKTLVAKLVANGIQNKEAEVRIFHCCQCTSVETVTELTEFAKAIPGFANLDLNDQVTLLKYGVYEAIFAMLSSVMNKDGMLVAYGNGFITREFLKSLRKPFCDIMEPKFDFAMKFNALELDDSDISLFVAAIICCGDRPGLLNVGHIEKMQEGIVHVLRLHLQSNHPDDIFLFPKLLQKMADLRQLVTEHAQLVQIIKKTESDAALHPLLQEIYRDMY

[12] = NAFLD/NASH; cited from earlier work
[13] = both women and men; cited from earlier work

CSc1ccc(C(=O)/C=C/c2cc(C)c(OC(C)(C)C(=O)O)c(C)c2)cc1 [GFT505]
liver dysfunction markers including ALT, ALP and GGT ([1]; clinical studies): decrease
lipid-modifying efficacy (reduction in TGs, non-HDL-C, total cholesterol, LDL-C, apoB; increases in HDL-C) ([1]; healthy subjects and patients with T2DM, abdominal obesity, dyslipidemia, pre-diabetes, insulin resistance): confirmed
interim safety analysis at 6 months [2]: no safety issue
hepatic steatosis, inflammation, fibrosis and liver dysfunction markers [3]: decreased

Cc1cc(SCc2sc(-c3ccc(C(F)(F)F)cc3)nc2C)ccc1OCC(=O)O [GW510516]
decrease in fasting TGs [4]: 30%
decrease in fasting insulin [4]: 11%
reduction in LDL-C [4]: 23%
reduction in apoB [4]: 26%
reduction in fasting non-esterified fatty acids [4]: 40%
reduction in hepatic fat [4]: 20%
diabetes (glucose and insulin levels) [5]: markedly improved
diet-induced obesity and insulin resistance [6]: ameliorated
reduction in hepatic fat ([7]; one of the Phase 1 studies): 20%
TGs, LDL-C, apoB, and insulin levels ([7]; two Phase 1 studies): reduce
association with cancers in animal studies [8]: rapid development of cancers in several organs

CCO[C@H](COc1ccc(C(F)(F)F)cc1)CSc1ccc(OCC(=O)O)c(C)c1 [MBX-8025, (R)-2-(4-((2-ethoxy-3-(4-(trifluoromethyl)phenoxy)propyl)-thio)-2-methylphenoxy)acetic acid]
improvement in disease as manifested by MRI and liver biopsy [9]: dose-related improvement
reduction in LDL-C in the tertile with the highest starting LDL-C levels (187-205 mg/dL) ([10]; 100 mg/day): 35%
reduction of LDL-C over the total population treated ([10]; 100 mg/day): 22%
reduction (decrease) of LDL-S/VS ([10]; 8 weeks): 40-48%
reduction of apoB100 compared to placebo ([10]; MBX-8025 50 or 100 mg alone and in combination with atorvastatin 20 mg, 8 weeks, P<0.05): 20-38%
raise of HDL-C ([10]; MBX-8025 alone and in combination with atorvastatin, 8 weeks): 1-12%
insulin sensitivity (HOMA-IR, fasting plasma glucose, and insulin) ([10]; in vivo): increases insulin sensitivity
specificity for PPARδ compared with PPARα receptor [11]: > 600 fold

CC(C)c1c(C(=O)Nc2ccccc2)c(-c2ccccc2)c(-c2ccc(F)cc2)n1CC[C@@H](O)C[C@@H](O)CC(=O)O [atorvastatin]
reduction (decrease) of LDL-S/VS ([10]; 8 weeks): 25%

CCCCCCCCCCC[C@@H](C[C@@H]1OC(=O)[C@H]1CCCCCC)OC(=O)[C@H](CC(C)C)NC=O [orlistat]
benefit compared to weight loss alone (diet and exercise) [12]: no significant benefit

CCc1ccc(CCOc2ccc(CC3SC(=O)NC3=O)cc2)nc1 (centres unmarked) [pioglitazone]
risk of weight gain, edema, congestive heart failure, and osteoporotic fractures [13]: significantly increased risk
